Experimental data from paper PMC5452050 (ACS Omega, 2017).
pIC50, pKd: −log10 of the molar value.

How the values were obtained:
[1] = Plasma stability; type: in vitro ADME; settings: mouse
[2] = molecular target: JAK1 (JH2 domain-pseudokinase) (Homo sapiens, UniProt P23458); assay: Kd determination; type: binding
[3] = Plasma stability; type: in vitro ADME; settings: human
[4] = Simulated gastric fluid; type: physicochemical
[5] = Plasma stability; type: in vitro ADME; settings: rat
[6] = molecular target: MINK (Homo sapiens, UniProt Q8N4C8); assay: Kd determination; type: binding
[7] = molecular target: T1, recombinant human FLT3 (571–993) (Homo sapiens, UniProt P36888); assay: biochemical; type: biochemical
T1 sequence (P36888 571-993): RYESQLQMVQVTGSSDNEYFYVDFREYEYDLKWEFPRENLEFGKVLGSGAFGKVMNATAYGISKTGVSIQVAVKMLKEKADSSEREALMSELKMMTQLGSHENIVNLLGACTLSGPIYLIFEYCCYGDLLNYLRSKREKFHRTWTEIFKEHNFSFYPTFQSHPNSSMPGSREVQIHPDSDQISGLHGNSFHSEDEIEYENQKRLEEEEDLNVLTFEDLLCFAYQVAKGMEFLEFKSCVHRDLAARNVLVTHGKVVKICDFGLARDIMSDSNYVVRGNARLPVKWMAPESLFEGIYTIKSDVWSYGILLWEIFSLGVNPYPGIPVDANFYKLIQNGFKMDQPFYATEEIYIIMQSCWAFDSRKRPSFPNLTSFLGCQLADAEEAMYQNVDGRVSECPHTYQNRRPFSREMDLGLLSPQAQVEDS

[8] = molecular target: HCK (Homo sapiens, UniProt P08631); assay: Kd determination; type: binding
[9] = molecular target: AURKC (Homo sapiens, UniProt Q9UQB9); assay: Kd determination; type: binding
[10] = molecular target: RET (M918T) (Homo sapiens, UniProt P07949, M918T); assay: Kd determination; type: binding
[11] = molecular target: MERTK (Homo sapiens, UniProt Q12866); assay: Kd determination; type: binding
[12] = molecular target: PRKCQ (Homo sapiens, UniProt Q04759); assay: Kd determination; type: binding
[13] = molecular target: CSF1R-autoinhibited (Homo sapiens, UniProt P07333); assay: Kd determination; type: binding
[14] = molecular target: IRAK1 (Homo sapiens, UniProt P51617); assay: Kd determination; type: binding
Chain of IRAK1 (P51617 whole entry): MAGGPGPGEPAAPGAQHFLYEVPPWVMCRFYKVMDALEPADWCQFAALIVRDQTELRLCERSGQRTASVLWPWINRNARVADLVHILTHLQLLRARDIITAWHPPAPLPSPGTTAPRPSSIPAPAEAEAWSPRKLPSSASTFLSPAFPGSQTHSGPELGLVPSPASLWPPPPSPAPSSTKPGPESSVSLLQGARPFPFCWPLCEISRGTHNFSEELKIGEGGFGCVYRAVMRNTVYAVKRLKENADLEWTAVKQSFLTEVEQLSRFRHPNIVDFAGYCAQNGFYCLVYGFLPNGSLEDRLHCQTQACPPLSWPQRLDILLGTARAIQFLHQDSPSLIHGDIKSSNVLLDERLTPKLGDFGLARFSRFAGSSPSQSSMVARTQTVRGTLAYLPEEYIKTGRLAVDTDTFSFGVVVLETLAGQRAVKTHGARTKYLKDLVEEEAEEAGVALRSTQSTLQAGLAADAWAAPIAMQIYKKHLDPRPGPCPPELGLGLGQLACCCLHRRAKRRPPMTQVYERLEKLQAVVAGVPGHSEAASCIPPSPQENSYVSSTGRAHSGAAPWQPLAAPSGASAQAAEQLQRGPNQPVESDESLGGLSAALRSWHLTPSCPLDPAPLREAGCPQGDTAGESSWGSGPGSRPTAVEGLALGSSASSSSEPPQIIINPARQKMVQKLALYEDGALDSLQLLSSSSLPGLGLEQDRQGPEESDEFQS

Chain of RET (M918T) (P07949 29-1114 M918T): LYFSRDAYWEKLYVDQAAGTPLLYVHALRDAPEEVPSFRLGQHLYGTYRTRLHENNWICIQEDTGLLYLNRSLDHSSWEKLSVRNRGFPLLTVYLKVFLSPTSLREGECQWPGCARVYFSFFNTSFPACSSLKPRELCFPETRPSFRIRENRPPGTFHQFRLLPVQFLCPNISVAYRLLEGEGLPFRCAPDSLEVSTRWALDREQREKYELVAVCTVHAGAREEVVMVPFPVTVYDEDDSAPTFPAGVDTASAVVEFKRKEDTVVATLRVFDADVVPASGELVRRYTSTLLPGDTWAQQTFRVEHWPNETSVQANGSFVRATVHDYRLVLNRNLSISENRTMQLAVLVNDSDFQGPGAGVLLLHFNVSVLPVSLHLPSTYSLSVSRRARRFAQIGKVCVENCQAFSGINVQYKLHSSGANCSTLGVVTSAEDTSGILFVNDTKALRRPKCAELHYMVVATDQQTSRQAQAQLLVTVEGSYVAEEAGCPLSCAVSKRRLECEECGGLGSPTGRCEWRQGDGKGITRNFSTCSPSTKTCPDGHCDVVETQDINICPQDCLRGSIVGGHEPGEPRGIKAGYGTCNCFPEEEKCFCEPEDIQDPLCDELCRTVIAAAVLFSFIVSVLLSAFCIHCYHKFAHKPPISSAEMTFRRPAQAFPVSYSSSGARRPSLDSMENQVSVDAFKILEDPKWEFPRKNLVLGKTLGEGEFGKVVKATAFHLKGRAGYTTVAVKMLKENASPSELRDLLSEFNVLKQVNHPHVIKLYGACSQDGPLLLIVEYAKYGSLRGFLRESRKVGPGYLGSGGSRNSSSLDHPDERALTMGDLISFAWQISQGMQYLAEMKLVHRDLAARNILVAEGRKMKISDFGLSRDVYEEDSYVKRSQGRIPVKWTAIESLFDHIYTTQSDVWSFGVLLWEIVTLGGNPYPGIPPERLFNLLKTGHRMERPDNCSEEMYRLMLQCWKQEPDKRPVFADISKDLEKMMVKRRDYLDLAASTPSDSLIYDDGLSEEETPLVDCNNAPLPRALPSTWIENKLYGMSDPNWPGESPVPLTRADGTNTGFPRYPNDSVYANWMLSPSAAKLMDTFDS
Chain of JAK1 (JH2 domain-pseudokinase) (P23458 583-855 limits assumed): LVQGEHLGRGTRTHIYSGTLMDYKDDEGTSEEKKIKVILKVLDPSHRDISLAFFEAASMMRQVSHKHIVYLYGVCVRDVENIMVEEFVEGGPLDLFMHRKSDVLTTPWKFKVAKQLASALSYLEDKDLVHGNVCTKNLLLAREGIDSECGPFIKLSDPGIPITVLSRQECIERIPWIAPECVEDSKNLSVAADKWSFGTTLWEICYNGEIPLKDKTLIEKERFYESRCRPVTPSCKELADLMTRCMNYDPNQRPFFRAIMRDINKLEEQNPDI
Chain of CSF1R-autoinhibited (P07333 539-972 limits assumed): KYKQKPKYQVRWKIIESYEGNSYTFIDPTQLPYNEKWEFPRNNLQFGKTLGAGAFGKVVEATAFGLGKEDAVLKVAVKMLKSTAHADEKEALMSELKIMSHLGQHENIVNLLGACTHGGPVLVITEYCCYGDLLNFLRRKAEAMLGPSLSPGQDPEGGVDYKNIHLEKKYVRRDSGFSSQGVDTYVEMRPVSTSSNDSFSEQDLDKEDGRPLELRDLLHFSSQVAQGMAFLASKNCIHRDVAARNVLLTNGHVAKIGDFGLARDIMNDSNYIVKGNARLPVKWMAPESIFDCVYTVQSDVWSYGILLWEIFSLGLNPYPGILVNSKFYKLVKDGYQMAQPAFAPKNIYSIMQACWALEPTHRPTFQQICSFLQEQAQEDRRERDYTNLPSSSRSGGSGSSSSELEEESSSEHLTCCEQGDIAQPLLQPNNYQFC
Chain of HCK (P08631 whole entry): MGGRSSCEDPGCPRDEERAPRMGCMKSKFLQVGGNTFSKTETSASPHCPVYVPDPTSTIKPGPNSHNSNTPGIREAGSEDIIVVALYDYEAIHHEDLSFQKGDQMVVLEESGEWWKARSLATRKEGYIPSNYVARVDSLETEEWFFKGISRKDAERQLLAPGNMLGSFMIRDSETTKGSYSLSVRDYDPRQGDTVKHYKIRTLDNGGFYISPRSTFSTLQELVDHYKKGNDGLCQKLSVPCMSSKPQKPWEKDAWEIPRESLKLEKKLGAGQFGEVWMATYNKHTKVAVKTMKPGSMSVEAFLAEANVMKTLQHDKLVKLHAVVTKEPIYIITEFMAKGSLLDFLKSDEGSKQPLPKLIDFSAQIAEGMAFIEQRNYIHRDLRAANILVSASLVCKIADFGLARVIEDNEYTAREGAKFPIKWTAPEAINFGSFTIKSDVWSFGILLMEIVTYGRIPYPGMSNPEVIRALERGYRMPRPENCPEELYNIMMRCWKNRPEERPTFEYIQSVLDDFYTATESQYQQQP
Chain of AURKC (Q9UQB9 whole entry): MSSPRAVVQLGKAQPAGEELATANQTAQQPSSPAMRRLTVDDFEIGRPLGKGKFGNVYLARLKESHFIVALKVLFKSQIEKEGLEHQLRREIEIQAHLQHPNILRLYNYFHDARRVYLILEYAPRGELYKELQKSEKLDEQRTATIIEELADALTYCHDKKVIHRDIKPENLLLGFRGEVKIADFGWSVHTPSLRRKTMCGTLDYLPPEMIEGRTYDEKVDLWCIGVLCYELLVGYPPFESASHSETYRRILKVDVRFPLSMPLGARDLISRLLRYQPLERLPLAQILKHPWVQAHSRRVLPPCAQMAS
Chain of MERTK (Q12866 21-999): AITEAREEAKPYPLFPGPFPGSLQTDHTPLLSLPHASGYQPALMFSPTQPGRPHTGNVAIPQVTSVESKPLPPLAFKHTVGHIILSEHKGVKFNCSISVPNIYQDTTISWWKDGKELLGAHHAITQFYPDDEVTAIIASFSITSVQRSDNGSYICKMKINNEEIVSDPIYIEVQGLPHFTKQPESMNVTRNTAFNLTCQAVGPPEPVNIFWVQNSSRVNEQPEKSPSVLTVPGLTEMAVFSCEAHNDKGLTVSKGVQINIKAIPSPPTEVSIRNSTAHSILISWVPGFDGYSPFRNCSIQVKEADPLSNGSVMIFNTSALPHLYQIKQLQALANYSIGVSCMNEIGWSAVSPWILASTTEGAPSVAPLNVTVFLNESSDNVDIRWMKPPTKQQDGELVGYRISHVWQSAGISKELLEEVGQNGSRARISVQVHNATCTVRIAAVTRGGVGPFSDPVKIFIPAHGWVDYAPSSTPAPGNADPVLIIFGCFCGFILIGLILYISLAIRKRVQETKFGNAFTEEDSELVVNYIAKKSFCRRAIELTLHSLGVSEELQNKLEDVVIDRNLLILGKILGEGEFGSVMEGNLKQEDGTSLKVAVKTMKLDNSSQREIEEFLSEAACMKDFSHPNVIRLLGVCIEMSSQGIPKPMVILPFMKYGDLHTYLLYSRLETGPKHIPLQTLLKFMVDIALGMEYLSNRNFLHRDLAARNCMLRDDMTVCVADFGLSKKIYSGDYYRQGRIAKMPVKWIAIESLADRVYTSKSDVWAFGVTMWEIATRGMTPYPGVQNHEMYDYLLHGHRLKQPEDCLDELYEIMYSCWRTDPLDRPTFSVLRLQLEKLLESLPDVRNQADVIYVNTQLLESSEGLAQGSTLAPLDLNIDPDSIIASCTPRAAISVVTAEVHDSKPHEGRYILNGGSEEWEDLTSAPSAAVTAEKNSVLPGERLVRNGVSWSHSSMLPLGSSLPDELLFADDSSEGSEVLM
Chain of PRKCQ (Q04759 whole entry): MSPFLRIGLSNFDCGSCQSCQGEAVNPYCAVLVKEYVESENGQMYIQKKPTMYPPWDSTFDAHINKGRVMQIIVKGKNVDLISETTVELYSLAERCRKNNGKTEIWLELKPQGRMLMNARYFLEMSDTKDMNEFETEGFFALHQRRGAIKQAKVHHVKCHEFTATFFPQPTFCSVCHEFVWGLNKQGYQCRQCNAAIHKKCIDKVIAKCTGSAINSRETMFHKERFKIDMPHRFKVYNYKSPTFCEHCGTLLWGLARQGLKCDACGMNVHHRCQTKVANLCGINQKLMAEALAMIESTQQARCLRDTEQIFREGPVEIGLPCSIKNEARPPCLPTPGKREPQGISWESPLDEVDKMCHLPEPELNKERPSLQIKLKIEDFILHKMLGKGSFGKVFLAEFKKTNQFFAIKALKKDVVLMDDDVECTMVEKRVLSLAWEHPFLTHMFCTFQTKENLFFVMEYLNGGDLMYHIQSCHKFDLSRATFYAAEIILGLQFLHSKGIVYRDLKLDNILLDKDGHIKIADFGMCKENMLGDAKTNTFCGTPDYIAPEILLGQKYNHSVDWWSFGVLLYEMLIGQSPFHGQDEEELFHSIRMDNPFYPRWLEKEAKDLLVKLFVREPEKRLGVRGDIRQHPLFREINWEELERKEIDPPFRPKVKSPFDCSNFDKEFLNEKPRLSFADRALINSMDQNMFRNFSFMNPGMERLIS

plasma stability [1] [h]	pKd [2]	plasma stability [3] [h]	SGF stability [4] [h]	plasma stability [5] [h]	pKd [6]	pIC50 ([7]; FLT3 IC50, 100 μM ATP)	pIC50 ([7]; FLT3 IC50, 2.5 mM ATP)	pKd [8]	pKd [9]	pKd [10]	pKd [11]	pKd [12]	pKd [13]	pKd [14]	Structure (SMILES)
>48	7.55	>48	>48	>48	–	–	–	–	–	–	–	–	–	–	CC(C)Nc1ccnc(Nc2cccc(-c3cccnc3)c2)n1 [Compound 5e, N^4-Isopropyl-N^2-(3-(pyridin-3-yl)phenyl)pyrimidine-2,4-diamine]
–	–	–	–	–	5.60	> 8.22	6.94	5.68	< 5.00	5.92	5.55	5.80	5.82	5.82	c1cncc(-c2cccc(Nc3nccc(NC4CCCCC4)n3)c2)c1 [Compound 1, N^4-Cyclohexyl-N^2-(3-(pyridin-3-yl)phenyl)pyrimidine-2,4-diamine]
